Values quoted from earlier work, collected in patent US7803392B2, “pH-Sensitive mucoadhesive film-forming gels and wax-film composites suitable for topical and mucosal delivery of molecules” (University of Kentucky Research Foundation, priority 2000, dated 2010).

Legend:
[1] = buccal 10 mg midazolam per 2 mL
[2] = buccal administration of 5 mg midazolam
[3] = subcutaneous injection twice a day for 8 days, patients

**Q.** For Oc1cc(Cl)ccc1Oc1ccc(Cl)cc1Cl [Triclosan, 2,4,4′-Trichloro 2′-hydroxy-diphenyl-ether 5-chloro 2-(2,4-dichlorophenoxy)-phenol], which pKa is on record?
**A.** 7.9

**Q.** And the “solubility in alkaline solutions” value (alkaline solutions)?
**A.** readily soluble

**Q.** And the solubility in ethanol (ethanol)?
**A.** soluble

**Q.** And the “solubility in polyethylene glycol 400” value (polyethylene glycol 400)?
**A.** soluble

**Q.** And the solubility in water (water)?
**A.** insoluble

**Q.** What does the source list for Cc1ncc2n1-c1ccc(Cl)cc1C(c1ccccc1F)=NC2 [midazolam]?
**A.** average time to stop seizures after administration ([1]; children): 6 min; seizures stopped ([1]; children (30/40 seizures)): 75%; maximum plasma concentration [2]: 55.9 ng/mL; mean bioavailability [2]: 74.5%; time of maximum plasma concentration [2]: 30 min

**Q.** For Hirudin, which “lower overall rate of deep-vein thrombosis than low molecular weight heparin” value [3] is on record?
**A.** ~30%
